Bounds are passed on as bounds.

In data set [1] the target is Vps34 (Homo sapiens, UniProt Q8NEB9). As to the kind of experiment: Kinase Glo Luminescent Kinase Assay (Kglo), assay C. It counts as biochemical. The conditions noted are these: read-out: Assay C VPS34 IC50.
In data set [2] the target is T1, PI 3-kinase delta (Homo sapiens, UniProt O00329). The experiment in a line: Cellular assay J1, p-Akt (S473) in Rat-1 cells, Surefire format. The class given is cell-based. The conditions noted are these: non-asterisked data: version J1 (Surefire format), Rat-1 cells; read-out: Assay J PI3Kδ IC50.
Data set [3] addresses T2, PI 3-kinase alpha (Homo sapiens, UniProt P42336). The experiment in a line: Cellular assay H1, p-Akt (S473) in Rat-1 cells, Surefire format. It counts as cell-based. Particulars: non-asterisked data: version H1 (Surefire format), Rat-1 cells; read-out: Assay H PI3Kα IC50.
Target sequence in this assay (P42336 whole entry): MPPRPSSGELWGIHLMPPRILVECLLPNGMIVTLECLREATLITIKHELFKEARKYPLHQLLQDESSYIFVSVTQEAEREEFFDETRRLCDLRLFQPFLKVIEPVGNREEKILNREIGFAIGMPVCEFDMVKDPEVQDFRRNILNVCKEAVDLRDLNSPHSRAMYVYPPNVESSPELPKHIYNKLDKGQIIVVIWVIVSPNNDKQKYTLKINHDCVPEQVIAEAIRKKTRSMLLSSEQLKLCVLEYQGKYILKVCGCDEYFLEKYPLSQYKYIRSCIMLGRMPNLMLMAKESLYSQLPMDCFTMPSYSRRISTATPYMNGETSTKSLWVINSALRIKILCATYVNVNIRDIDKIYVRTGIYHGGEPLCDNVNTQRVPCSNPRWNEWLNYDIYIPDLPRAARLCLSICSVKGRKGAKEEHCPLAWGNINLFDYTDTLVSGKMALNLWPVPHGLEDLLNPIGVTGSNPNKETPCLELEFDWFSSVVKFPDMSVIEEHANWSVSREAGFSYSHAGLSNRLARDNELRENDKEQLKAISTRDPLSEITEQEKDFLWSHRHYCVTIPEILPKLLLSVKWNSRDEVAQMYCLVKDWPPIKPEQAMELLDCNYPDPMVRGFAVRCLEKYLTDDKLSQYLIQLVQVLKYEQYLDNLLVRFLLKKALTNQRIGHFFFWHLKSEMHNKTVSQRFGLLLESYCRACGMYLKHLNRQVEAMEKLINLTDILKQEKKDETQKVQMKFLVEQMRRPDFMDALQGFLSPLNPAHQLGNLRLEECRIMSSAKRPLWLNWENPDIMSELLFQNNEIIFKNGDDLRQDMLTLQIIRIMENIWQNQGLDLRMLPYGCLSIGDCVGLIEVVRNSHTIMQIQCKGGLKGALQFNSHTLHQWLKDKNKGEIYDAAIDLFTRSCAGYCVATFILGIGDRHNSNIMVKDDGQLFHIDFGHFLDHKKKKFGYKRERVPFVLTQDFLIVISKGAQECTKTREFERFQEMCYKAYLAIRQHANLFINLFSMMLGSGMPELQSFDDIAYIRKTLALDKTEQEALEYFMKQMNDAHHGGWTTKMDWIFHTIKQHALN
Target sequence in this assay (Q63787 whole entry partner): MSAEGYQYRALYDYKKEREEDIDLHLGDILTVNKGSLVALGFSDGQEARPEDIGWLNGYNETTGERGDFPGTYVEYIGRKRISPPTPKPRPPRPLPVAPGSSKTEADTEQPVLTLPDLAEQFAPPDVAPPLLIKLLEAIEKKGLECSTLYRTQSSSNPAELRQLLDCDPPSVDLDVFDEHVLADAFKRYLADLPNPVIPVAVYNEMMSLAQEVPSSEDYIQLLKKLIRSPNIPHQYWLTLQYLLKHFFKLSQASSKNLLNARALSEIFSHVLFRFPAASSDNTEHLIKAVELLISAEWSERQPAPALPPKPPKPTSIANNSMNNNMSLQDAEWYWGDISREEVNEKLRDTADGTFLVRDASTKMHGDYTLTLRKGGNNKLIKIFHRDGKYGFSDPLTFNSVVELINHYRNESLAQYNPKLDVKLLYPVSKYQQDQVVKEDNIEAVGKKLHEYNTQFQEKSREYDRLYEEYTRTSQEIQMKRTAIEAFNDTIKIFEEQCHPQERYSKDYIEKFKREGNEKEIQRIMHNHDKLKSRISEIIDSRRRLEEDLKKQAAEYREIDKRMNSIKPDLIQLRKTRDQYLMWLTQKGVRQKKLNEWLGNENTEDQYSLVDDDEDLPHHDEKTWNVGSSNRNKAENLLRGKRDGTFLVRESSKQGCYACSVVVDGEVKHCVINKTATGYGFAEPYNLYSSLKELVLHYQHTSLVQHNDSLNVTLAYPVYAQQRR
In data set [4] the target is T3, PI 3-kinase beta (Homo sapiens, UniProt P42338). As to the kind of experiment: Cellular assay I1, p-Akt (S473) in Rat-1 cells, Surefire format. It counts as cell-based. The conditions noted are these: non-asterisked data: version I1 (Surefire format), Rat-1 cells; read-out: Assay I PI3Kβ IC50.
For data set [5], the target named is PI 4-kinase beta (Homo sapiens, UniProt Q9UBF8). As to the kind of experiment: Kinase Glo Luminescent Kinase Assay (Kglo), assay D. Particulars: read-out: Assay D PI4Kβ IC50. It counts as biochemical.
Data set [6] can be described thus: Microsomal clearance assay (M). Particulars: intrinsic clearance in rat liver microsomes.
Procedure: The experiments were performed in 96-well glass plates at 37° C. on an automated Tecan EVO platform. Test compounds at a concentration of 10 mM in pure DMSO were diluted 1:1000 in water to 10 μM. […] Reactions were initiated by the addition of 150 μL of a cofactor solution containing 2 mM NADPH.
Data set [7] deals with T2, PI 3-kinase alpha. The experiment in a line: Kinase Glo Luminescent Kinase Assay (Kglo), assay A. It counts as biochemical. The conditions noted are these: read-out: Assay A PI3Kα IC50.
Target sequence in this assay (P42336 whole entry): as the sequence (P42336 whole entry) above
Data set [8] deals with mTOR (Homo sapiens, UniProt P42345). As to the kind of experiment: Lanthascreen kinase binding assay, assay G. The conditions noted are these: read-out: Assay G mTOR IC50.
Procedure: Lanthascreen™ Kinase Binding Assay for mTOR (G)
Binding of an inhibitor to the kinase competes for binding with the tracer, resulting in a loss of FRET.
50 nL of compound dilutions were dispensed onto white 384-well small volume polystyrene plate.
The target in data set [9] is PI 3-kinase gamma (Homo sapiens, UniProt P48736). The experiment in a line: TR-FRET Adapta assay, assay E. The conditions noted are these: read-out: Assay E PI3Kγ IC50. The class given is biochemical.
In data set [10] the target is T3, PI 3-kinase beta. The experiment in a line: Kinase Glo Luminescent Kinase Assay (Kglo), assay B. The class given is biochemical. The conditions noted are these: read-out: Assay B PI3Kβ IC50.
Data set [11] has as its target T1, PI 3-kinase delta. The experiment in a line: TR-FRET Adapta assay, assay F. Particulars: read-out: Assay F PI3Kδ IC50.

Vps34, sequence (Q8NEB9 whole entry, species assumed): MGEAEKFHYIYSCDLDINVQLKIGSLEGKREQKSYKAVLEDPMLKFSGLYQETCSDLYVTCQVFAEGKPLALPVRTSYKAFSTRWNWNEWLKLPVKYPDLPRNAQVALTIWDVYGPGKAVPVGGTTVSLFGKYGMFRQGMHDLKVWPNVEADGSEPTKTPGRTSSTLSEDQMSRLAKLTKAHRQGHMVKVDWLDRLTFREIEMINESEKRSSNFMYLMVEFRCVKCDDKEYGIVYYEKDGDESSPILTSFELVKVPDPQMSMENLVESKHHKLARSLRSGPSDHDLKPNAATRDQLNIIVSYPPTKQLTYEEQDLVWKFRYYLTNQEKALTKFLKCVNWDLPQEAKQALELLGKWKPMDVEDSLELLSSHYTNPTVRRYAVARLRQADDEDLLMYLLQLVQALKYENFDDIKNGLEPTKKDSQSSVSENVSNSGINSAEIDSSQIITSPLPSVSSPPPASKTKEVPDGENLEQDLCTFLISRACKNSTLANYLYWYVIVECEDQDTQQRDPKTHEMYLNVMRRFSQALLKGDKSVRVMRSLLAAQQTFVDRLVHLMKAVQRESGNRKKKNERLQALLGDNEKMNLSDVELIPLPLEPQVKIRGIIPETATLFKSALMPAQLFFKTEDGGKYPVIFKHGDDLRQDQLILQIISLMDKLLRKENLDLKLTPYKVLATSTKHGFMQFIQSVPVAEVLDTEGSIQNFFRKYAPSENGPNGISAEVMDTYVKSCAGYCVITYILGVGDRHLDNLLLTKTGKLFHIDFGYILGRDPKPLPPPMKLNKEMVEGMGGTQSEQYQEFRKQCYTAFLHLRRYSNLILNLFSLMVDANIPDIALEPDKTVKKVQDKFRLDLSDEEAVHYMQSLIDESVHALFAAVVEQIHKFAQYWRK
PI 4-kinase beta, sequence (Q9UBF8 whole entry): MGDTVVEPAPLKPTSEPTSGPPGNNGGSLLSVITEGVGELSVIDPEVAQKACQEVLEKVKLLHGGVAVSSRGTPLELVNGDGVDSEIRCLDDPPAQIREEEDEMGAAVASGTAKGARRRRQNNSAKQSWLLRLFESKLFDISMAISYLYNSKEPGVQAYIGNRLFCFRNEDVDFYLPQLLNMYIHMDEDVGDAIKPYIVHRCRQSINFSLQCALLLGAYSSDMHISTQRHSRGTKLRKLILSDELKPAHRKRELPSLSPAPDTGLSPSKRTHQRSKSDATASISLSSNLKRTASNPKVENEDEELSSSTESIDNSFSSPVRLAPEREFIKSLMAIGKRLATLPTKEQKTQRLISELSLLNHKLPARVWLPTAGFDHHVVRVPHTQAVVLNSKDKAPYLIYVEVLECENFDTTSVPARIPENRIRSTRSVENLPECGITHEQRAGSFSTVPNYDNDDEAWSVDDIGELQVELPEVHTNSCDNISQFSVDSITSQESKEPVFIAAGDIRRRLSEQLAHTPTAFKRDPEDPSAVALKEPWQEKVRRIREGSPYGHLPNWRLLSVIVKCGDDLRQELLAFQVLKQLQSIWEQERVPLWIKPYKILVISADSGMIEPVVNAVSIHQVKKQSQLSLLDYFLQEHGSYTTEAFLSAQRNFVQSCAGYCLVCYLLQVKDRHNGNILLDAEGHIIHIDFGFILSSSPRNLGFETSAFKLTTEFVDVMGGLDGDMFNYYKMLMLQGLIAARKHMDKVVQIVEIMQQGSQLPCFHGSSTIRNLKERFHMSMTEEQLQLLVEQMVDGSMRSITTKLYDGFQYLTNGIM
PI 3-kinase gamma, sequence (P48736 whole entry): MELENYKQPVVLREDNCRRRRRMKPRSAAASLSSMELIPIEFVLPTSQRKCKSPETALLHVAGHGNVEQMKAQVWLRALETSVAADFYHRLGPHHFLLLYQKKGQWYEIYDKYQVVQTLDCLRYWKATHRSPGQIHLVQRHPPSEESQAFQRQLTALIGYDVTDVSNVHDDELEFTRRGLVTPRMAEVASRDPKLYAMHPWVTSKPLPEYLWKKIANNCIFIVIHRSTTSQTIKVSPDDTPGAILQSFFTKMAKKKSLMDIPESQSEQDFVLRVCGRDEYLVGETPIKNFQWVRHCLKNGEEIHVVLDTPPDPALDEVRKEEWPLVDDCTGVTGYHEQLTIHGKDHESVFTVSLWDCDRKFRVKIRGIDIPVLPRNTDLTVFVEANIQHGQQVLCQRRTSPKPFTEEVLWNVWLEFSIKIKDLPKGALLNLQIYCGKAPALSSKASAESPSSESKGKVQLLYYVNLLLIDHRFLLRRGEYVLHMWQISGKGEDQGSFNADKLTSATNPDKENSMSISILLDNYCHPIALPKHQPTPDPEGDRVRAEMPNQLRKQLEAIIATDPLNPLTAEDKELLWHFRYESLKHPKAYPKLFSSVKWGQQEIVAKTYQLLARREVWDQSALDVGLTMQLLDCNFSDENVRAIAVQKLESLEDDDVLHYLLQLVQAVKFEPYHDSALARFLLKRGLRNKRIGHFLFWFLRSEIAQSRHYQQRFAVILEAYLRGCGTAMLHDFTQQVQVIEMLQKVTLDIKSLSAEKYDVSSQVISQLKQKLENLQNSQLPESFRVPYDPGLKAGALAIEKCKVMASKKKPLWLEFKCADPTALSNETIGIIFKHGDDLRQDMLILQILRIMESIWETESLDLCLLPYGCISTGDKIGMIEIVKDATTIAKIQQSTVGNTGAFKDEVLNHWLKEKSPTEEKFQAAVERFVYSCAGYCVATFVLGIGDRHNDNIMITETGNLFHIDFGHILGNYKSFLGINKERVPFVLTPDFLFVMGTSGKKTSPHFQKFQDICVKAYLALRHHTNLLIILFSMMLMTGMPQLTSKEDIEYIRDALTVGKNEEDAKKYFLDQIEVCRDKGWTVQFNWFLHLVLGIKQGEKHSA

For the molecule `CCc1noc(-c2nc(-c3cc(S(=O)(=O)NC4CNC4)ccc3C)cnc2N)n1` [Example 137, 3-(5-Amino-6-(3-ethyl-1,2,4-oxadiazol-5-yl)pyrazin-2-yl)-N-(azetidin-3-yl)-4-methylbenzenesulfonamide], the concentration for half-maximal inhibition (IC50) is > 9.1 µM in data set [1]; 8.58 µM in data set [2]; > 10 µM in data set [3]; > 10 µM in [4]; > 9.1 µM in data set [5]; 1.74 µM in data set [7]. In addition, the half-inhibitory concentration (IC50) in data set [8] was 0.95 µM; in [9], 0.058 µM; in data set [10], > 9.1 µM; in data set [11] it was 0.33 µM. Also, the “Assay M RLM CI(int)” value in data set [6] came to 28 µL/min/mg.

Turning to `Cc1ccc(S(=O)(=O)NCC(C)(C)O)cc1-c1cnc(N)c(-c2cnn(CCN(C)C)c2)n1` [Example 142, 3-(5-Amino-6-(1-(2-(dimethylamino)ethyl)-1H-pyrazol-4-yl)pyrazin-2-yl)-N-(2-hydroxy-2-methylpropyl)-4-methylbenzenesulfonamide], the IC50 is > 10 µM in data set [1]; > 10 µM in data set [2]; > 10 µM in [3]; > 10 µM in data set [4]; > 10 µM in data set [5]; 1 µM in data set [7]. For the same molecule, the IC50 in data set [9] came out at 0.27 µM; in data set [10], 6 µM; in data set [11], 1 µM. For the same molecule, the “Assay M RLM CI(int)” value in data set [6] came out at 34 µL/min/mg.

In the case of `Cc1ccc(S(=O)(=O)NOC(C)C)cc1-c1cnc(N)c(-n2cncn2)n1` [Example 112.3, 3-(5-Amino-6-(1H-1,2,4-triazol-1-yl)pyrazin-2-yl)-N-isopropoxy-4-methylbenzenesulfonamide], the 50% inhibitory concentration (IC50) in data set [1] was > 10 µM; in data set [2] it was 0.86 µM; in [3], 0.4 µM; in data set [4], > 3 µM; in data set [5], 1.2 µM; in [7] it was 0.36 µM. Moreover, the IC50 worked out at 1.36 µM in data set [8], 1.1 µM in [10] and 0.26 µM in data set [11]. For the same molecule, in data set [6], the “Assay M RLM CI(int)” value amounted to 123 µL/min/mg.

For `Cc1ccc(S(=O)(=O)NCCC(C)(C)O)cc1-c1cnc(N)c(-c2ccc(OC3CCOCC3)nc2)n1` [Example 119.24], the 50% inhibitory concentration (IC50) is > 9.1 µM in data set [1]; 3.17 µM in data set [2]; 2.6 µM in data set [3]; 9.22 µM in [4]; 3.4 µM in data set [5]; 1.09 µM in data set [7]. The half-maximal inhibitory concentration (IC50) in data set [8] is 9.02 µM; in data set [9], 0.761 µM; in [10] it was > 9.1 µM; in data set [11], 1.67 µM.

As for `Cc1ccc(S(=O)(=O)NCCC(C)(C)O)cc1-c1cnc(N)c(-c2cc(Cl)cnc2F)n1` [Example 119.8], the half-maximal inhibitory concentration (IC50) in data set [1] was > 9.1 µM; in data set [2], 5.2 µM; in data set [3], 3.85 µM; in data set [4], 4.64 µM; in [5], 4.53 µM; in data set [7], 1.05 µM. The IC50 is 5.94 µM in data set [8], 0.167 µM in data set [9], > 9.1 µM in [10] and 0.2 µM in data set [11].

`COc1ncccc1-c1nc(-c2cc(S(=O)(=O)NCCC(C)(C)O)ccc2C)cnc1N` [Example 119.4]: the IC50 in [1] was > 9.1 µM; in [2], > 10 µM; in [3], > 10 µM; in data set [4] it was > 10 µM; in [5], > 9.1 µM; in [7], 2.83 µM. Moreover, the IC50 is > 9.1 µM in data set [8], 3.12 µM in data set [9], > 9.1 µM in data set [10] and 5.7 µM in data set [11].

`Cc1ncc(S(=O)(=O)NCC(C)(C)O)cc1-c1cnc(N)c(-n2cncn2)n1` [Example 53, 5-(5-Amino-6-(1H-1,2,4-triazol-1-yl)pyrazin-2-yl)-N-(2-hydroxy-2-methylpropyl)-6-methylpyridine-3-sulfonamide]: the IC50 in [1] is > 10 µM; in data set [2] it was > 10 µM; in data set [3], > 10 µM; in data set [4], > 10 µM; in data set [5] it was > 10 µM; in data set [7], 1.7 µM. Moreover, the IC50 was 0.69 µM in data set [9], 7 µM in data set [10] and 3.7 µM in data set [11]. Moreover, in data set [6], the “Assay M RLM CI(int)” value is 29 µL/min/mg.

For `Cc1ccc(S(=O)(=O)NCCC(C)(C)O)cc1-c1cnc(N)c(-c2cccnc2F)n1` [Example 119.1], the IC50 is > 9.1 µM in data set [1]; 2.82 µM in data set [2]; 2.69 µM in data set [3]; 3.81 µM in data set [4]; 6.2 µM in [5]; 0.61 µM in data set [7]. Also, the IC50 was 4.91 µM in data set [8], 1 µM in [9], > 9.1 µM in [10] and 2.3 µM in data set [11].

Turning to `Cc1ccc(S(=O)(=O)NCCC(C)(C)O)cc1-c1cnc(N)c(-c2ccc(N3CCCCC3)nc2)n1` [Example 119.23], the IC50 in data set [1] was > 9.1 µM; in data set [2], 3.53 µM; in [3], 1.97 µM; in [4], 8.49 µM; in data set [5], 0.94 µM; in data set [7], 1.34 µM. In addition, the half-inhibitory concentration (IC50) in data set [8] was 7.6 µM; in [9], 0.525 µM; in [10] it was > 9.1 µM; in [11] it was 2.04 µM.

Regarding `Cc1ccc(S(=O)(=O)NCCC(C)(C)O)cc1-c1cnc(N)c(-c2ccoc2)n1` [Example 119.15], the IC50 was > 9.1 µM in data set [1]; 1.65 µM in data set [2]; 1.48 µM in [3]; 7.33 µM in data set [4]; 4.86 µM in data set [5]; 1.66 µM in data set [7]. In addition, the IC50 in data set [8] is > 9.1 µM; in [9], 0.162 µM; in data set [10], 8.81 µM; in [11], 0.96 µM.

Take `Cc1ccc(S(=O)(=O)NCCC(C)(C)O)cc1-c1cnc(N)c(-c2c[nH]nc2C)n1` [Example 119.22]: the IC50 in data set [1] is > 9.1 µM; in data set [2] it was > 10 µM; in data set [3], 4.41 µM; in data set [4], > 10 µM; in data set [5], 2.19 µM; in [7] it was 0.57 µM. Also, the IC50 in data set [8] was 2.34 µM; in [9] it was 0.157 µM; in data set [10] it was 1.93 µM; in data set [11], 0.53 µM.

In the case of `Cc1ccc(S(=O)(=O)NOCC(C)C)cc1-c1cnc(N)c(-n2cncn2)n1` [Example 112.4, 3-(5-Amino-6-(1H-1,2,4-triazol-1-yl)pyrazin-2-yl)-N-isobutoxy-4-methylbenzenesulfonamide], the concentration for half-maximal inhibition (IC50) in data set [1] was > 10 µM; in [2], 0.4 µM; in data set [3], 0.07 µM; in [4] it was > 3 µM; in data set [5], 1.1 µM; in data set [7], 0.08 µM. The half-inhibitory concentration (IC50) in data set [8] is > 10 µM; in data set [9], 0.093 µM; in data set [10], 0.56 µM; in data set [11] it was 0.19 µM.

For the origin of these results see patent publication US10004732B2 (Novartis AG, priority 2014, dated 2018).
